According to patent publication US8822467B2 (Ligand Pharmaceuticals Inc., priority 2009, dated 2014):

These compounds were tested against T1, human CRTH2 (Homo sapiens, UniProt Q9Y5Y4) (assay: [35S]GTPγS binding assay (SPA) on membranes from CHO-K1 cells stably expressing human CRTH2, stimulated with 60 nM DHK-PGD2). Settings: membranes of CHO-K1 cells expressing human CRTH2; 60 nM DHK-PGD2; Table 1; read-out: CRTH2 hGTPγS IC50.
T1 construct: expressed in transfected cells
T1 sequence (Q9Y5Y4 1-395): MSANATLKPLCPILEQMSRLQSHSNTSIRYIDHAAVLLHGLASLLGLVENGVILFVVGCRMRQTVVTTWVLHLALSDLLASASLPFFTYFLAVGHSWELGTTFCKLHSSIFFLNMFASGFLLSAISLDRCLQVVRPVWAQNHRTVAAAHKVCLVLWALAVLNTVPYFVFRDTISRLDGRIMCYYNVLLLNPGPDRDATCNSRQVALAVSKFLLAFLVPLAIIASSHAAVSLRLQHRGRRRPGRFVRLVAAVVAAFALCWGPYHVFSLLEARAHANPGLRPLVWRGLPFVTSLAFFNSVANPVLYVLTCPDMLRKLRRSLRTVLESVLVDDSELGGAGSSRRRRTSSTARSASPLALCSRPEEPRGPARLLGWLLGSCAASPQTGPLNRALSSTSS
Assay type: biochemical
Method: [^35S]GTPγS Binding Assay
SPA [^35S]G-TPγS binding was performed on membranes from CHO-K1 cells stably expressing human CRTH2. To a white, clear-bottomed 384-well plate, 4 μg membrane protein was incubated in the binding buffer (20 mM HEPES, pH 7.4, 10 mM MgCl2, 300 mM NaCl, 0.2% BSA) with 60 nM DHK-PGD2, 500 pM [^35S]GTPγS, 10 μM GDP, and 100 μg wheat germ agglutinin-coupled SPA beads (GE Healthcare) with and without increasing concentrations of compounds. The final assay volume was 40 μL and contained 1% DMSO. Samples were incubated for 2 h at ambient temperature. Plates were centrifuged 5 min at 1500 rpm. Plates were read after an additional 4 h using the Trilux 1450 Microbeta (PerkinElmer) with a 30 sec/well reading time.

Row | IC50 | Compound
1 | 0.0007 µM | COc1ccc(S(=O)(=O)NCc2ccc(OCC(=O)O)c(-c3cc(F)cc(C#N)c3)c2)cc1F [Example 196, 2-(3-cyano-5-fluorophenyl)-4-((3-fluoro-4-methoxyphenylsulfonamido)methyl)phenoxyacetic acid]
2 | 0.0002 µM | CN(Cc1ccc(OCC(=O)O)c(-c2cc(F)cc(C#N)c2)c1)S(=O)(=O)c1cc(Cl)c(Cl)s1 [Example 192, 2-(3-cyano-5-fluorophenyl)-4-((2,3-dichloro-N-methylthiophene-5-sulfonamido)methyl)phenoxyacetic acid]
3 | 0.0018 µM | CN(Cc1ccc(OCC(=O)O)c(-c2cc(F)cc(C#N)c2)c1)S(=O)(=O)c1ccc(F)c(F)c1 [Example 44, 2-(3-cyano-5-fluorophenyl)-4-((3,4-difluoro-N-methylphenylsulfonamido)methyl)phenoxyacetic acid]
4 | 0.0006 µM | COc1cc(F)cc(-c2cc(CN(C)S(=O)(=O)c3ccc(F)c(Cl)c3)ccc2OCC(=O)O)c1 [Example 37, 2-(3-fluoro-5-methoxyphenyl)-4-((3-chloro-4-fluoro-N-methylphenylsulfonamido)methyl)phenoxyacetic acid]

Same assay, conditions: potency class symbols; Table 2; read-out: CRTH2 hGTPγS IC50

Row | Compound | IC50
5 | CN(Cc1ccc(OCC(=O)O)c(-c2ccc(F)c(F)c2)c1)S(=O)(=O)c1ccccc1 [Example 154, 2-(3,4-difluorophenyl)-4-((N-methylphenylsulfonamido)methyl)phenoxyacetic acid] | 1 to 10 µM
6 | CN(Cc1ccc(OCC(=O)O)c(-c2cccnc2)c1)S(=O)(=O)c1ccc(F)cc1 [Example 147, 2-(3-pyridinyl)-4-((4-fluoro-N-methylphenylsulfonamido)methyl)phenoxyacetic acid] | 0.1 to 1 µM
7 | CN(Cc1ccc(OCC(=O)O)c(-c2ccccc2)c1)S(=O)(=O)c1ccccc1 [Example 169, 2-phenyl-4-((N-methylphenylsulfonamido)methyl)phenoxyacetic acid] | 1 to 10 µM
8 | CN(Cc1cc(F)c(OCC(=O)O)c(-c2cc(F)cc(F)c2)c1)S(=O)(=O)c1ccc(F)cc1 [Example 139, 2-(3,5-difluorophenyl)-4-((4-fluoro-N-methylphenylsulfonamido)methyl)-6-fluorophenoxyacetic acid] | 0.1 to 1 µM
9 | CN(Cc1ccc(OCC(=O)O)c(-c2cccc(C(F)(F)F)c2)c1)S(=O)(=O)c1cccc(F)c1 [Example 126, 2-(3-trifluoromethylphenyl)-4-((3-fluoro-N-methylphenylsulfonamido)methyl)phenoxyacetic acid] | 0.1 to 1 µM
10 | CN(Cc1ccc(OCC(=O)O)c(-c2ccn3ccnc3c2)c1)S(=O)(=O)c1ccc(F)cc1 [Example 128, 2-(imidazo[1,2-a]pyridin-7-yl)-4-((4-fluoro-N-methylphenylsulfonamido)methyl)phenoxyacetic acid] | 0.1 to 1 µM
11 | CCOc1cc(F)cc(-c2cc(CN(C)S(=O)(=O)c3ccc(F)cc3)ccc2OCC(=O)O)c1 [Example 112, 2-(3-ethoxy-5-fluorophenyl)-4-((4-fluoro-N-methylphenylsulfonamido)methyl)phenoxyacetic acid] | 0.1 to 1 µM
12 | COc1cccc(-c2cc(CN(C)S(=O)(=O)c3ccc(F)cc3)ccc2OCC(=O)O)c1 [Example 133, 2-(3-methoxyphenyl)-4-((4-fluoro-N-methylphenylsulfonamido)methyl)phenoxyacetic acid] | 0.1 to 1 µM
13 | CNC(=O)c1cccc(-c2cc(CN(C)S(=O)(=O)c3ccc(F)cc3)ccc2OCC(=O)O)c1 [Example 135, 2-(3-N-methylaminocarbonylphenyl)-4-((4-fluoro-N-methylphenylsulfonamido)methyl)phenoxyacetic acid] | 0.1 to 1 µM
14 | CN(Cc1ccc(OCC(=O)O)c(-c2cccc(Cl)c2)c1)S(=O)(=O)c1ccc(F)cc1 [Example 163, 2-(3-chlorophenyl)-4-((4-fluoro-N-methylphenylsulfonamido)methyl)phenoxyacetic acid] | 1 to 10 µM
15 | COc1ccc(S(=O)(=O)N(C)Cc2ccc(OCC(=O)O)c(-c3cccc(C(F)(F)F)c3)c2)cc1 [Example 121, 2-(3-trifluoromethylphenyl)-4-((4-methoxy-N-methylphenylsulfonamido)methyl)phenoxyacetic acid] | 0.1 to 1 µM
16 | CN(C)S(=O)(=O)N(C)Cc1ccc(OCC(=O)O)c(-c2cccc(C(F)(F)F)c2)c1 [Example 182, 2-(3-trifluoromethylphenyl)-4-((N-methyldimethylaminosulfonamido)methyl)phenoxy acetic acid] | 1 to 10 µM
17 | CN(Cc1ccc(OCC(=O)O)c(-c2cccc(C(F)(F)F)c2)c1)S(=O)(=O)c1cccc(Cl)c1 [Example 111, 2-(3-trifluoromethylphenyl)-4-((3-chloro-N-methylphenylsulfonamido)methyl)phenoxyacetic acid] | 0.1 to 1 µM
18 | CN(Cc1ccc(OCC(=O)O)c(-c2cccc(C(F)(F)F)c2)c1)S(=O)(=O)c1ccccc1 [Example 131, 2-(3-trifluoromethylphenyl)-4-((N-methylphenylsulfonamido)methyl)phenoxyacetic acid] | 0.1 to 1 µM
19 | CN(Cc1ccc(OCC(=O)O)c(-c2cccc(C(F)(F)F)c2)c1)S(=O)(=O)C1CC1 [Example 181, 2-(3-trifluoromethylphenyl)-4-((N-methylcyclopropanesulfonamido)methyl)phenoxyacetic acid] | 1 to 10 µM
20 | C[C@@H](Oc1ccc(CN(C)S(=O)(=O)c2ccc(F)cc2)cc1-c1cccc(C(F)(F)F)c1)C(=O)O [Example 35, (R)-2-(2-(3-trifluoromethylphenyl)-4-((4-fluoro-N-methylphenylsulfonamido)methyl)phenoxy)propanoic acid] | 1 to 10 µM
21 | CN(Cc1ccc(OCC(=O)O)c(-c2ccc3ccncc3c2)c1)S(=O)(=O)c1ccc(F)cc1 [Example 212, 2-(isoquinolin-7-yl)-4-((4-fluoro-N-methylphenylsulfonamido)methyl)phenoxyacetic acid] | 0.1 to 1 µM

Now from value to compound:

Row | IC50 | Compound
22 | < 0.1 µM | CN(Cc1cc(-c2cc(F)cc(C#N)c2)c(OCC(=O)O)cc1F)S(=O)(=O)c1cccc(Cl)c1 [Example 210, 2-(3-cyano-5-fluoro-phenyl)-4-((3-chloro-N-methylphenylsulfonamido)methyl)-5-fluorophenoxyacetic acid]
23 | < 0.1 µM | CNS(=O)(=O)c1cccc(-c2cc(CN(C)S(=O)(=O)c3ccc(F)cc3)ccc2OCC(=O)O)c1 [Example 54, 2-(3-N-methylsulfamoylphenyl)-4-((4-fluoro-N-methylphenylsulfonamido)methyl)phenoxyacetic acid]
24 | < 0.1 µM | CN(Cc1ccc(OCC(=O)O)c(-c2ccc(F)c(S(C)(=O)=O)c2)c1)S(=O)(=O)c1ccc(F)cc1 [Example 28, 2-((4-fluoro-3-(methylsulfonyl)phenyl)-4-((4-fluoro-N-methylphenylsulfonamido)methyl)phenoxy)acetic acid]
25 | < 0.1 µM | CN(Cc1ccc(OCC(=O)O)c(-c2cccc(C#N)c2)c1)S(=O)(=O)c1cccc(Cl)c1 [Example 70, 2-(3-cyanophenyl)-4-((3-chloro-N-methylphenylsulfonamido)methyl)phenoxyacetic acid]
26 | < 0.1 µM | CN(Cc1cc(-c2cccc(C#N)c2)c(OCC(=O)O)cc1Cl)S(=O)(=O)c1cccc(F)c1 [Example 53, 2-(3-cyanophenyl)-4-((3-fluoro-N-methylphenylsulfonamido)methyl)-5-chlorophenoxyacetic acid]
27 | < 0.1 µM | COc1ccc(S(=O)(=O)NCc2ccc(OCC(=O)O)c(-c3cc(F)cc(C#N)c3)c2)cc1F [Example 196, 2-(3-cyano-5-fluorophenyl)-4-((3-fluoro-4-methoxyphenylsulfonamido)methyl)phenoxyacetic acid]
28 | < 0.1 µM | CN(Cc1ccc(OCC(=O)O)c(-c2cc(F)cc(C#N)c2)c1)S(=O)(=O)c1cc(Cl)c(Cl)s1 [Example 192, 2-(3-cyano-5-fluorophenyl)-4-((2,3-dichloro-N-methylthiophene-5-sulfonamido)methyl)phenoxyacetic acid]
29 | < 0.1 µM | CN(Cc1ccc(OCC(=O)O)c(-c2cc(F)cc(C#N)c2)c1)S(=O)(=O)c1ccc(F)c(F)c1 [Example 44, 2-(3-cyano-5-fluorophenyl)-4-((3,4-difluoro-N-methylphenylsulfonamido)methyl)phenoxyacetic acid]
30 | < 0.1 µM | CN(Cc1ccc(OCC(=O)O)c(-c2cc(F)cc(C#N)c2)c1)S(=O)(=O)c1cccc(F)c1 [Example 61, 2-(3-cyano-5-fluorophenyl)-4-((3-fluoro-N-methylphenylsulfonamido)methyl)phenoxyacetic acid]
31 | < 0.1 µM | CN(Cc1cc(-c2cc(F)cc(C#N)c2)c(OCC(=O)O)cc1F)S(=O)(=O)c1ccc(F)c(Cl)c1 [Example 209, 2-(3-cyano-5-fluoro-phenyl)-4-((3-chloro-4-fluoro-N-methylphenylsulfonamido)methyl)-5-fluorophenoxyacetic acid]
32 | < 0.1 µM | CN(Cc1ccc(OCC(=O)O)c(-c2cccc(S(C)(=O)=O)c2)c1)S(=O)(=O)c1ccc(F)cc1 [Example 60, 2-(3-methylsulfonylphenyl)-4-((4-fluoro-N-methylphenylsulfonamido)methyl)phenoxyacetic acid]
33 | < 0.1 µM | CN(Cc1ccc(OCC(=O)O)c(-c2cccc(S(C)(=O)=O)c2)c1)S(=O)(=O)c1ccc(F)c(Cl)c1 [Example 39, 2-(3-methylsulfonylphenyl)-4-((3-chloro-4-fluoro-N-methylphenylsulfonamido)methyl)phenoxyacetic acid]
34 | < 0.1 µM | COc1cc(F)cc(-c2cc(CN(C)S(=O)(=O)c3ccc(F)c(Cl)c3)ccc2OCC(=O)O)c1 [Example 37, 2-(3-fluoro-5-methoxyphenyl)-4-((3-chloro-4-fluoro-N-methylphenylsulfonamido)methyl)phenoxyacetic acid]
35 | < 0.1 µM | Cc1ccc(S(=O)(=O)N(C)Cc2ccc(OCC(=O)O)c(-c3cccc(C#N)c3)c2)cc1F [Example 92, 2-(3-cyanophenyl)-4-((3-fluoro-4-methyl-N-methylphenylsulfonamido)methyl)phenoxyacetic acid]
